Laboratory results published in ChEMBL document CHEMBL1201862, “PubChem BioAssay data set” (2004).
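Dose response: 5 concentrations. Exposure: 48 h. Format: 96-well plates. Endpoint: linear interpolation; highest concentration if not reached. GI50 is the concentration that inhibits growth by half.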 Calls of active or inactive are those of the source. No stated cut-off is given here; in the data, active = GI50 up to about 1.1 µM and inactive = higher.

Columns and labels:
Assay in all cases: inhibition of tumour cell growth, NCI panel, 48 h
SK-MEL-5 = tested on: SK-MEL-5
HT-29 = tested on: HT-29
SK-MEL-2 = tested on: SK-MEL-2
SN12C = tested on: SN12C
SF-539 = tested on: SF-539
K562 = tested on: K562
SK-OV-3 = tested on: SK-OV-3
HCT-116 = tested on: HCT-116
SF-295 = tested on: SF-295
HOP-62 = tested on: HOP-62
UACC-62 = tested on: UACC-62
A549 = tested on: A549
ACHN = tested on: ACHN
HCC 2998 = tested on: HCC 2998
OVCAR-8 = tested on: OVCAR-8
HL-60 = tested on: HL-60
SNB-75 = tested on: SNB-75
EKVX = tested on: EKVX

Measured: GI50

O=C(Nc1ccc(Sc2ccc(/N=N/c3c(O)c(S(=O)(=O)O)cc4cc(S(=O)(=O)O)ccc34)cc2)cc1)c1ccc(/N=N/c2c(O)c(S(=O)(=O)O)cc3cc(S(=O)(=O)O)ccc23)cc1
inactive: SK-MEL-5 13.5 µM | HT-29 32.1 µM | SK-MEL-2 18.8 µM | SN12C 26.9 µM | SF-539 45.8 µM | K562 19.4 µM | SK-OV-3 > 100 µM | HCT-116 29.8 µM | SF-295 22.3 µM | HOP-62 88.1 µM | UACC-62 22.2 µM | A549 26.7 µM | ACHN 29.9 µM | HCC 2998 > 100 µM | OVCAR-8 21 µM | HL-60 6.97 µM | SNB-75 > 100 µM | EKVX 17.7 µM

O=C(N/C(=C\c1cc(Cl)ccc1Cl)c1nc2c(O)nc(S)nc2[nH]1)c1ccccc1
inactive: SK-MEL-5 47 µM | HT-29 20.8 µM | SK-MEL-2 46.1 µM | SN12C 30.1 µM | SF-539 27.7 µM | K562 7.43 µM | SK-OV-3 98.2 µM | HCT-116 7.91 µM | SF-295 37.4 µM | HOP-62 > 100 µM | UACC-62 19.7 µM | A549 98.6 µM | ACHN 37.1 µM | HCC 2998 16.4 µM | OVCAR-8 25.7 µM | HL-60 4.82 µM | SNB-75 34.2 µM | EKVX 37.8 µM

CCOC(=O)/C=C1\Nc2ccccc2C(c2ccccc2)=NC1OC(C)=O (configuration not stated)
inactive: SK-MEL-5 > 100 µM | HT-29 57.5 µM | SK-MEL-2 > 100 µM | SN12C > 100 µM | SF-539 > 100 µM | K562 97.1 µM | SK-OV-3 > 100 µM | HCT-116 > 100 µM | SF-295 > 100 µM | HOP-62 > 100 µM | UACC-62 79.6 µM | A549 > 100 µM | ACHN > 100 µM | HCC 2998 > 100 µM | OVCAR-8 > 100 µM | HL-60 81.5 µM | SNB-75 31.9 µM | EKVX > 100 µM

Cc1cn2cc(-c3ccncc3)nc2s1
inactive: SK-MEL-5 > 100 µM | HT-29 > 100 µM | SK-MEL-2 > 100 µM | SN12C > 100 µM | SF-539 > 100 µM | K562 > 51.8 µM | SK-OV-3 > 100 µM | HCT-116 > 83 µM | SF-295 > 100 µM | HOP-62 > 100 µM | UACC-62 > 100 µM | A549 > 100 µM | ACHN > 100 µM | HCC 2998 > 100 µM | OVCAR-8 > 100 µM | HL-60 > 19.8 µM | SNB-75 > 100 µM | EKVX > 100 µM
